Read-outs that look alike come from different tables or passages of the source.
Legend:
GR (h) = target: T1, GR (h) (Homo sapiens, UniProt P04150); assay: CEREP panel; format: binding; conditions: 10 µM; for inhibition at 10 µM: read-out: % inhibition GR (h)
T1 construct: CEREP (contract assay)
T1 sequence (P04150 1-777): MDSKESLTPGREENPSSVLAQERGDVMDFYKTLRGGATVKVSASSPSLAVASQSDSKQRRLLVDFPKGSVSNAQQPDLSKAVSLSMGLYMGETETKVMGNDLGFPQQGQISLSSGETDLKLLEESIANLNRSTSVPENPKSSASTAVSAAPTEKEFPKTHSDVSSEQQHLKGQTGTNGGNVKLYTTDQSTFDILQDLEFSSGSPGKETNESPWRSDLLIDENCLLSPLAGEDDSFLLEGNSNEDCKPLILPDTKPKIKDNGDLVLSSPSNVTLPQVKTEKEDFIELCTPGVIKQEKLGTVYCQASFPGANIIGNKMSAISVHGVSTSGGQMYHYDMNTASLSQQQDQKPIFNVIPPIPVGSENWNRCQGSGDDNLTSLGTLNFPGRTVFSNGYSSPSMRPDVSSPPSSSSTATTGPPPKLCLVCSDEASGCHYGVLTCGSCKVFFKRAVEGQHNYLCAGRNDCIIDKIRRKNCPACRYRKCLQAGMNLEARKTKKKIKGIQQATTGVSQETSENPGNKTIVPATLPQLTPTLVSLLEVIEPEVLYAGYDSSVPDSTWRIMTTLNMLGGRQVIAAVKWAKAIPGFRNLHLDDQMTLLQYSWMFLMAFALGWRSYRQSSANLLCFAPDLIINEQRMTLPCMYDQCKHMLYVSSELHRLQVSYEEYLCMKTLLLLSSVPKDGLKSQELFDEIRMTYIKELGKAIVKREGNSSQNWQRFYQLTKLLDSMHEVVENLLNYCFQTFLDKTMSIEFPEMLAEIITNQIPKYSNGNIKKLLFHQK

[1] = for Pct acceptor / Pct donor / Pct membrane: PAMPA; for Pct membrane: compound found in membranes; for Pampa Peff: membrane permeation coefficient
[2] = tested on: AEA reuptake in HaCaT cells; assay: cells; format: cell-based, human; conditions: for AEA reuptake % inhibition, effect at 10 µM, HaCaT cells / inhibition at 10 µM: 10 µM (values marked *); for IC50: read-out: AEA reuptake IC50 (95% CI) HaCaT cells; for AEA reuptake Efficacy (% inhibition) HaCaT cells: from dose-response; for inhibition at 10 µM: read-out: AEA reuptake % inhibition, effect at 10 µM, HaCaT cells
hDAGL-α = target: T2, hDAGL-α (Homo sapiens, UniProt Q9Y4D2); assay: Biochemical DAGLα activity assay; conditions: for inhibition at 10 µM: read-out: DAGL % inhibition at 10 µM ± SD
T2 construct: expressed in transfected cells; host or cells: HEK293T (transient), membrane preparation
T2 sequence (Q9Y4D2 1-1042): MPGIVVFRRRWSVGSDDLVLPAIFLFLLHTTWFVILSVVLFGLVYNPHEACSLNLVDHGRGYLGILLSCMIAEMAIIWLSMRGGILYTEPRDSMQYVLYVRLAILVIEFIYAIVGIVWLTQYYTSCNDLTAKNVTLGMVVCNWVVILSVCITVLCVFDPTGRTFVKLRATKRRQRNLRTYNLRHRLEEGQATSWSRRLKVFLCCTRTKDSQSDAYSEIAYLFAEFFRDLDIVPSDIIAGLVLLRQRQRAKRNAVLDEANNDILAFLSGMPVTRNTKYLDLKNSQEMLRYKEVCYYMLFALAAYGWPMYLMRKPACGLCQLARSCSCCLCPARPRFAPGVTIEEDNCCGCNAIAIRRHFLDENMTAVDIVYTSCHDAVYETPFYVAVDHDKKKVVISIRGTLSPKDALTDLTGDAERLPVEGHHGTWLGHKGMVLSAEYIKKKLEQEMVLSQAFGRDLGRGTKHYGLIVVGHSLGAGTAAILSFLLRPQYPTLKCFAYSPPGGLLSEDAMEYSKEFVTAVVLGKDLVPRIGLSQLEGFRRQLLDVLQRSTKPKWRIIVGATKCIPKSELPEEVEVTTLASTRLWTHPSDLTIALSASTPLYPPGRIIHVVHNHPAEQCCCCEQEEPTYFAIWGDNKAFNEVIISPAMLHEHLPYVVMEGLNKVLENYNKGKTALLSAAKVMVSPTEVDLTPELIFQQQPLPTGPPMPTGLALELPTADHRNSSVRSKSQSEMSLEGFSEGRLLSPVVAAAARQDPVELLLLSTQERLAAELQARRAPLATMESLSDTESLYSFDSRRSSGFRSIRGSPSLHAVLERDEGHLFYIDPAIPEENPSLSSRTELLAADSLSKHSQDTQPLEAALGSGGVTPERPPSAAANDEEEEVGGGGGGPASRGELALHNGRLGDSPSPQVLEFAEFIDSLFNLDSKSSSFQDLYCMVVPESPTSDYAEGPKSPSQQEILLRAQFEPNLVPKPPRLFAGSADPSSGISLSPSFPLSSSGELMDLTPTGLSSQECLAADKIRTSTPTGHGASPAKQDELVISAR
Method: Cell culture and membrane preparation were performed as previously described. HEK293T cells (source: Dutch Cancer Institute) were grown in DMEM with stable glutamine and phenolred (PAA), 10% New Born Calf serum, penicillin and streptomycin. Cells were passaged every 2–3 days by resuspending in medium and seeding them to appropriate confluence. Membranes were prepared from transiently transfected HEK293T cells. One day prior to transfection 10^7 cells were seeded in a 15 cm petri dish. Cells were transfected by the addition of a 3:1 mixture of polyethyleneimine (60 μg) and plasmid DNA (20 μg) in 2 ml serum-free medium. The medium was refreshed after 24 h, and after 72 h the cells were harvested by suspending them in 20 ml medium. The suspension was centrifuged for 10 min at 1000, rpm, and the supernatant was removed. The cell pellet was stored at −80 °C until use. Cell pellets were thawed on ice and suspended in lysis buffer A (20 mM HEPES, 2 mM DTT, 0.25 M sucrose, 1 mM MgCl2, […] Benzonase). The suspension was homogenized by polytrone (3 × 7 s) and incubated for 30 min on ice. The suspension was subjected to ultracentrifugation (100,000 × g, 30 min, 4 °C, Beckman Coulter, Type Ti70 rotor) to yield the cytosolic fraction in the supernatant and the membrane fraction as a pellet. The pellet was resuspended in lysis buffer B (20 mM HEPES, 2 mM DTT). The protein concentration was determined with Quick Start Bradford assay (Biorad). The protein fractions were diluted to a total protein concentration of 1 mg ml^−1 and stored in small aliquots at −80 °C until use.
hDAGL-α activity was measured by the extent of the hydrolysis of para-nitrophenylbutyrate (PNP-butyrate) by membrane preparations from HEK293T cells (source: Dutch Cancer Institute) transiently transfected with hDAGL-α (ref. [43]). Percentage of inhibition of reference ligands was determined in comparison with an untreated control. Reactions were performed in 50 mM pH 7.2 HEPES buffer with 0.05 μg μl^−1 final protein concentration hDAGL-α transfected protein.

hCB2R = hCB2R (Homo sapiens, UniProt P34972); assay: cell-based; format: cell-based; conditions: for Emax: read-out: Emax ± SEM β-AR recruitment hCB2R
hCB2R, sequence (P34972 whole entry): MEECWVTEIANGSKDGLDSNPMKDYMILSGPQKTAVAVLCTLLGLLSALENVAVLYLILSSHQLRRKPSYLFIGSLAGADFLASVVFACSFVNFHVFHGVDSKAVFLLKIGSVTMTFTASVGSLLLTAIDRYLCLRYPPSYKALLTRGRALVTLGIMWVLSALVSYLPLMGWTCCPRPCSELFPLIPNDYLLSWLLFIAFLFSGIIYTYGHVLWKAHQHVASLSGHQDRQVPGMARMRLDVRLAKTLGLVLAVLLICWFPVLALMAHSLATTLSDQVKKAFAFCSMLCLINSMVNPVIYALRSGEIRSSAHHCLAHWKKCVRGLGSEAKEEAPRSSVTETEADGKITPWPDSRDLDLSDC

[3] = normalized to 10 µM CP55940, negative = inhibition of EC80 of CP55940

Compound | % inhibition GR (h) (GR (h)) [%] | Pct acceptor [1] [%] | Pct donor [1] [%] | Pct membrane [1] [%] | Pampa Peff [1] [cm/s*10-6] | AEA reuptake % inhibition, effect at 10 µM, HaCaT cells [2] [%] | IC50 [2] [µM] | DAGL % inhibition at 10 µM ± SD (hDAGL-α) [%] | Emax ± SEM β-AR recruitment hCB2R (hCB2R) | pEC50 ± SEM β-AR recruitment hCB2R (hCB2R) | AEA reuptake Efficacy (% inhibition) HaCaT cells [2] [%] | other results
CCCC(C)(C)c1ccc2c(c1)OC(C)(C)[C@@H]1CC=C(C)C[C@@H]21 [JWH133] | 7 | 2.3 | 36.1 | 61.7 | 1.86 | 39 | > 10 | 30 ± 7 | 62 ± 11 | 7.81 ± 0.22 |  | CB2R Selectivity β-AR recruitment (hCB2R): 275 fold
CCCCC/C=C\C/C=C\C/C=C\C/C=C\CCCC(=O)NCCO [Anandamide, N-arachidonoylethanolamine] |  | 1.2 | 96.3 | 2.7 | 0.26 |  |  |  |  |  | 86 | IC50 ([2]; Homo sapiens, HaCaT): 0.27 µM; inhibition at 10 µM (hDAGL-α): 32 ± 22%; Emax (hCB2R): 38 ± 3%
CCCn1c(C)c(C(=O)c2cccc3ccccc23)c2ccccc21 [JWH015] | 36 |  |  |  |  | 64 | > 5 | -8 ± 5 |  |  |  | 
COc1ccc(C(=O)c2c(C)n(CCN3CCOCC3)c3cc(I)ccc23)cc1 [AM630] | 38 | 0.37 | 35.4 | 64.3 | 0.2 |  | 4.18 | 6 ± 12 | -124 ± 6 | 6.15 ± 0.08 | 65 | 
CCCCCCC(C)(C)c1ccc([C@@H]2C[C@H](O)CC[C@H]2CCCO)c(O)c1 [CP55940] | 94 |  |  |  | 0 |  |  |  |  |  |  | inhibition at 10 µM (GR (h)): 92%; inhibition at 10 µM ([2]; Homo sapiens, HaCaT): 13%; IC50 ([2]; Homo sapiens, HaCaT): > 10 µM; inhibition at 10 µM (hDAGL-α): 20 ± 16%; Emax (hCB2R): 80 ± 5%
CN1CCCC[C@@H]1Cn1cc(C(=O)c2cc([N+](=O)[O-])ccc2I)c2ccccc21 [(R)-AM1241] |  | 2.1 | 38.3 | 59.7 | 1.22 | 25 | > 5 | 10 ± 12 | 29 ± 4 | 7.52 ± 0.43 |  | CB2R Selectivity β-AR recruitment (hCB2R; 10^(pEC50 CB2R-pEC50 CB1R)): 86 fold
CN1CCCC[C@H]1Cn1cc(C(=O)c2cc([N+](=O)[O-])ccc2I)c2ccccc21 [(S)-AM1241] | 10 | 2.2 | 34 | 64 | 1.41 |  | 4.49 | 9 ± 9 | 29 ± 8 | 6.54 ± 0.44 | 90 | 
CCCCC/C=C\C/C=C\C/C=C\C/C=C\CCCC(=O)OC(CO)CO [2-AG, 2-arachidonoyl glycerol] |  |  |  |  |  |  |  |  |  |  |  | inhibition at 10 µM ([2]; Homo sapiens, HaCaT): 60%; IC50 ([2]; Homo sapiens, HaCaT): > 5 µM; inhibition at 10 µM (hDAGL-α): -12 ± 16%; EC50 (hCB2R): 2 µM; Emax (hCB2R): 80 ± 21%
Cc1c(C(=O)c2cccc3ccccc23)c2cccc3c2n1[C@H](CN1CCOCC1)CO3 [WIN55212-2] | 63 | 0.5 | 50.6 | 49 | 0.25±0.22 | 24 | > 5 | -9 ± 12 |  |  |  | 
SR144528 | 9 |  |  |  |  | 20 | > 10 | -28 ± 11 |  |  |  | Emax ± SEM β-AR recruitment hCB2R (hCB2R; [3]): -111 ± 3%
Cc1ccc2c(c1)Cc1c(C(=O)NN3CCCCC3)nn(-c3ccc(Cl)cc3Cl)c1-2 [Gp-1a] | 71 | 0 | 29.7 | 70.3 | 0 |  | 3.27 |  |  |  | 90 | pEC50 ± SEM β-AR recruitment hCB2R (hCB2R; antagonists in presence of EC80 of CP55940): 5.86 ± 0.16; Emax ± SEM β-AR recruitment hCB2R (hCB2R; [3]): -147 ± 11%
CN1CCCCC1Cn1cc(C(=O)c2cc([N+](=O)[O-])ccc2I)c2ccccc21 (racemic) [(rac)-AM1241] |  |  | 41.3 | 55.7 | 1.86±0.62 |  | 4.01 | 3 ± 10 | 14 ± 2 | < 5 | 80 | 
Cc1c(C(=O)NN2CCCCC2)nn(-c2ccc(Cl)cc2Cl)c1-c1ccc(I)cc1 [AM251] | 84 |  |  |  |  |  |  | 17 ± 6 | -104 ± 8 |  |  | 
Cc1c(C(=O)NN2CCCCC2)nn(-c2ccc(Cl)cc2Cl)c1-c1ccc(Cl)cc1 [SR141716A] |  | 0.3 | 25.2 | 74.3 | 0.27±0.11 |  |  |  |  |  | 80 | inhibition at 10 µM (GR (h)): 43%; inhibition at 10 µM (hDAGL-α): 20 ± 10%

Source: paper PMC5216056 (Nature Communications, 2017)
